Assays:
[1] = target: intracellular GCN2 (phosphorylation of the GCN2 substrate eIF2α) (Homo sapiens, UniProt Q9P2K8); assay: GCN2 cellular inhibition assay (AlphaScreen SureFire P-eIF2α Ser51, borrelidin-treated U2OS cells); format: cell-based; settings: biomarker assay, phosphorylated eIF2α Ser51 in borrelidin-treated U2OS cells
Outline: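 Borrelidin at 10 μM is added to U2OS cells immediately after compound (4-fold dilution series, 40 μM top final) for 1 h at 37 °C. Phosphorylated eIF2α Ser51 in lysates is quantified by AlphaScreen and expressed as percent inhibition against borrelidin-stimulated controls.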

[2] = tested on: primary human pan T-cells; assay: Human IL-2 assay for GCN2 inhibition (IL-2 secretion by T cells in low amino acid condition); format: cell-based; settings: T-cell; IL-2 secretion from human T cells, anti-CD3/CD28 stimulation, 96 hours; read-out: IL2/T-cell EC50
Description: Tumor microenvironment is profoundly immuno-suppressive. This may be attributed to the depletion of amino acids (like arginine and tryptophan) which triggers the activation of GCN2 in immune cells, including T cell and myeloid cells. In T cells, activation of GCN2 leads to reduce effector functions of CD8 T cells and induction and/or maintenance of immuno-suppressive T-regs. Inhibition of that immuno-suppressive response by GCN2 inhibitors enables an anti-cancer immune response by activating effector T-cells. Herein we describe an in-vitro system we established using human T-cells stimulated in low amino acid condition in order to engage the GCN2 biology. The method described involves the modulation of IL-2 levels secreted by human T cells in responses to the GCN2 inhibitors disclosed herein.
Amino acid-free RPMI was reconstituted with all but one of the amino acids found in standard RMPI (e.g. Arginine, Tryptophan), 10% charcoal-stripped fetal bovine serum, 100 Units/mL penicillin and 0.1 mg/mL streptomycin. Primary human pan T-cells were isolated using Pan T Cell Isolation Kit, human (MACS Miltenyi biotech Cat #Order no. 130-096-535) from apheresis cones and 5×104 pan T-cells per well. The purified T cells are seeded in Nunc™ 96-Well Polystyrene Round Bottom Microwell Plates (the cells are rested in No TRP media in a 15 ml falcon tube in the incubator for 30-45 minutes while titrations for tryptophan and the GCN2 inhibitor compound are made) A plate matrix was developed to titrate both a GCN2 inhibitor and the amino acid of interest ranging from “No Amino Acid” condition, up to the concentration found in the regular RPMI media (20 μM for TRP and 950 μM for Arginine). The cells were incubated for 30 min at 37° C. with the GCN2 inhibitor and then stimulated with 5×104 anti-CD3/CD28 Dynabeads® per well. After 96 hours of incubation the IL-2 level in the supernatant were measured using ELISA (R&D systems Cat #DY202 (Human IL-2 DuoSet ELISA). Data were plotted in GraphPad Prism software and EC50 is calculated.

GCN2 kinase = GCN2 kinase (Homo sapiens, UniProt Q9P2K8); assay: GCN2 enzyme inhibition assay (Transcreener ADP2 fluorescence polarization); format: biochemical; settings: 280 μM ATP, 4 nM GCN2 kinase
Chain of GCN2 kinase (Q9P2K8 whole entry): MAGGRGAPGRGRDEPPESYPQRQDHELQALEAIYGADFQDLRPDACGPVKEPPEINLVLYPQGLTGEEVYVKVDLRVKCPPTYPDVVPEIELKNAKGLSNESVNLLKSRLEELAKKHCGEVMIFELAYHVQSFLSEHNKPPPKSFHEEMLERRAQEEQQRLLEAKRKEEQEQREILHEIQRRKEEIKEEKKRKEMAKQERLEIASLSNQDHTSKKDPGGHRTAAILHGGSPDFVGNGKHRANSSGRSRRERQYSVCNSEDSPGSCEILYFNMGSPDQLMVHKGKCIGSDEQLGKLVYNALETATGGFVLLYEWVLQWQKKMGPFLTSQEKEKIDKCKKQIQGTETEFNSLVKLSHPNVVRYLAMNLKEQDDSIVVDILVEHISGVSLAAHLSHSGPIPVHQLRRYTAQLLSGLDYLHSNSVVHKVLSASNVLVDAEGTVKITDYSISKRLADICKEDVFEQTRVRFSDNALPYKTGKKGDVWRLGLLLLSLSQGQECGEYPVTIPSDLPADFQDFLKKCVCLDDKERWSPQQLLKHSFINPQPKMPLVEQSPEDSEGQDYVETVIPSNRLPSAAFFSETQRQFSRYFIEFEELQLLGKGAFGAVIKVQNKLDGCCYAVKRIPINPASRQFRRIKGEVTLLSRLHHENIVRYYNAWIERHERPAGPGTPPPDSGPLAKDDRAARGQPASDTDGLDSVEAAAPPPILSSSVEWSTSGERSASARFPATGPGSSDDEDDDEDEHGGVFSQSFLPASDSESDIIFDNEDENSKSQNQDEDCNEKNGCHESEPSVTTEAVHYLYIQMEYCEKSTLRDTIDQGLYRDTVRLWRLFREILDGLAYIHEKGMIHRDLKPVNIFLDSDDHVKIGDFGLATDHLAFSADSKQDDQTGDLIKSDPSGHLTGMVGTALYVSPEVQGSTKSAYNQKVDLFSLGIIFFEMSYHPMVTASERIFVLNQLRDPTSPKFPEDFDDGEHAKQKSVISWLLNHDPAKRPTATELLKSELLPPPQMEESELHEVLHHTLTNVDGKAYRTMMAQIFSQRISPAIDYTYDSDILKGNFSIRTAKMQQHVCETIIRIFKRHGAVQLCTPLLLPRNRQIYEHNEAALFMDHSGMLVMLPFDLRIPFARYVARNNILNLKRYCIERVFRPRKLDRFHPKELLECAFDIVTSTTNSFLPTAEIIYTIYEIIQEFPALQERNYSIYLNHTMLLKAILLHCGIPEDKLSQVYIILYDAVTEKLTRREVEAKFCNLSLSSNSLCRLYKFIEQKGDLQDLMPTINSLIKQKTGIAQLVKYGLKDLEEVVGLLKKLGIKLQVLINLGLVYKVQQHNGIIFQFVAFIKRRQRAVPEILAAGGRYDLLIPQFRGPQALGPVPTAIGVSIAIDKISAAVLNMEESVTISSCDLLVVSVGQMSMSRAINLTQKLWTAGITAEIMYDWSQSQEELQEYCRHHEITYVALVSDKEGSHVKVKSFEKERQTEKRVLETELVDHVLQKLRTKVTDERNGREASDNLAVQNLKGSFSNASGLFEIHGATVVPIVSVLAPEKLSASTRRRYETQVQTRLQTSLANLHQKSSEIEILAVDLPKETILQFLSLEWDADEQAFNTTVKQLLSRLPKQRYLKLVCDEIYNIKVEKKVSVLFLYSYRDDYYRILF
Outline: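 Run at 25 °C in 25 mM Tris-HCl pH 7.5, 50 mM NaCl, 10 mM MgCl2, 1 mM DTT with 4 nM GCN2, 280 μM ATP and 200 μM (RS)7 peptide; compound (0–8 μM final) preincubated 10 min, reaction 1 h. ADP read by antibody/tracer FP; IC50 and Ki(app) from tight-binding fit.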

Chain of intracellular GCN2 (phosphorylation of the GCN2 substrate eIF2α) (Q9P2K8 whole entry): as above

Compound | IC50 ([1]; compounds of Formula IV) [nM] | EC50 [2] [nM] | IC50 (GCN2 kinase; compounds of Formula IV) [nM] | IC50 ([1]; compounds of Formula II) [nM] | IC50 (GCN2 kinase; compounds of Formula II) [nM]
C[C@H]1C[C@@H](c2c[nH]nc2F)CN(c2ccnc(-c3cnc4cnc(C(F)(F)F)cn34)n2)C1 [IV-767] | < 500 | 100 to 500 | < 10 |  | 
Cc1[nH]ncc1[C@H]1CN(c2cc(-c3cnc4ccc(C(F)(F)F)nn34)ncn2)C[C@@H](C)O1 [II-768, (2R,6S)-2-methyl-6-(5-methyl-1H-pyrazol-4-yl)-4-(6-(6-(trifluoromethyl)imidazo[1,2-b]pyridazin-3-yl)pyrimidin-4-yl)morpholine] |  | > 500 |  | < 500 | < 10
CS(=O)(=O)NCC1CN(c2cc(-c3cnc4ccc(C(F)F)nn34)ncn2)CC2(CC2)C1(F)F (stereo not shown) [II-775, N-((5-(6-(6-(difluoromethyl)imidazo[1,2-b]pyridazin-3-yl)pyrimidin-4-yl)-8,8-difluoro-5-azaspiro[2.5]octan-7-yl)methyl)methanesulfonamide] |  | 100 to 500 |  |  | 
C[C@H](NS(C)(=O)=O)[C@@H]1CN(c2cc(-c3cnc4ccc(C(F)F)nn34)ncn2)CCO1 [II-772] |  | 100 to 500 |  |  | 10 to 1000
CS(=O)(=O)NC[C@@H]1CN(c2cc(-c3cnc4ccc(C(F)F)nn34)ncn2)C[C@H](C(F)(F)F)O1 [II-771, N-(((2S,6R)-4-(6-(6-(difluoromethyl)imidazo[1,2-b]pyridazin-3-yl)pyrimidin-4-yl)-6-(trifluoromethyl)morpholin-2-yl)methyl)methanesulfonamide] |  | 100 to 500 |  |  | 10 to 1000
Cc1n[nH]cc1[C@H]1C[C@@H](O)CN(c2ccnc(-c3cnc4cnc(C(F)(F)F)cn34)n2)C1 [IV-776, (3R,5R)-5-(3-methyl-1H-pyrazol-4-yl)-1-(2-(6-(trifluoromethyl)imidazo[1,2-a]pyrazin-3-yl)pyrimidin-4-yl)piperidin-3-ol] | 500 to 5000 | > 500 | < 10 |  | 
C[C@H]1CC(F)(F)C(CNS(C)(=O)=O)CN1c1cc(-c2cnc3ccc(C(F)F)nn23)ncn1 (stereo in doubt) [II-778, N-(((3R,6S)-1-(6-(6-(difluoromethyl)imidazo[1,2-b]pyridazin-3-yl)pyrimidin-4-yl)-4,4-difluoro-6-methylpiperidin-3-yl)methyl)methanesulfonamide] |  | > 500 |  |  | 
CS(=O)(=O)NC[C@H]1C[C@@H](C2CC2)CN(c2cc(-c3cnc4ccc(C(F)F)nn34)ncn2)C1 [II-774, N-(((3S,5S)-5-cyclopropyl-1-(6-(6-(difluoromethyl)imidazo[12-b]pyridazin-3-yl)pyrimidin-4-yl)piperidin-3-yl)methyl)methanesulfonamide] |  | < 100 |  |  | 
C[C@H]1[C@@H](CNS(C)(=O)=O)CCCN1c1cc(-c2cnc3ccc(C(F)F)nn23)ncn1 (stereo in doubt) [II-755, N-(((2S,3R)-1-(6-(6-(difluoromethyl)imidazo[1,2-b]pyridazin-3-yl)pyrimidin-4-yl)-2-methylpiperidin-3-yl)methyl)methanesulfonamide] |  | 100 to 500 |  |  | > 1000
C[C@H]1CN(c2cc(-c3cnc4ccc(C(F)F)nn34)ncn2)C[C@@H](CNS(C)(=O)=O)C1(F)F [II-773, N-(((3S,5S)-1-(6-(6-(difluoromethyl)imidazo[1,2-b]pyridazin-3-yl)pyrimidin-4-yl)-4,4-difluoro-5-methylpiperidin-3-yl)methyl)methanesulfonamide] |  | < 100 |  |  | 
C[C@H]1[C@@H](CNS(C)(=O)=O)N(C2CC2)CCN1c1cc(-c2cnc3ccc(C(F)F)nn23)ncn1 [II-752, N-(((2R,3S)-1-cyclopropyl-4-(6-(6-(difluoromethyl)imidazo[12-b]pyridazin-3-yl)pyrimidin-4-yl)-3-methylpiperazin-2-yl)methyl)methanesulfonamide] |  | < 100 |  | < 500 | < 10
CC1(C)CN(c2cc(-c3cnc4ccc(C(F)F)nn34)ncn2)C[C@@H](CNS(C)(=O)=O)O1 [II-776, (S)—N-((4-(6-(6-(difluoromethyl)imidazo[1,2-b]pyridazin-3-yl)pyrimidin-4-yl)-6,6-dimethylmorpholin-2-yl)methyl)methanesulfonamide] |  | 100 to 500 |  |  | 
C[C@H]1C[C@@H](NS(C)(=O)=O)CN(c2cc(-c3cnc4ccc(C(F)F)nn34)ncn2)C1 (stereo in doubt) [II-777, N-((3R,5S)-1-(6-(6-(difluoromethyl)imidazo[1,2-b]pyridazin-3-yl)pyrimidin-4-yl)-5-methylpiperidin-3-yl)methanesulfonamide] |  | 100 to 500 |  |  | 
Cc1n[nH]cc1[C@@H]1CN(c2ccnc(-c3cnc4cnc(C(F)(F)F)cn34)n2)C[C@H](C)O1 (stereo in doubt) [IV-763, (2S,6R)-2-methyl-6-(3-methyl-1H-pyrazol-4-yl)-4-(2-(6-(trifluoromethyl)imidazo[1,2-a]pyrazin-3-yl)pyrimidin-4-yl)morpholine] | < 500 | 100 to 500 | < 10 |  | 
CS(=O)(=O)NCC1CCCN(c2cc(-c3cnc4ccc(C(F)F)nn34)cc(OC3CNC3)n2)C1 (stereo not shown) [II-779, N-((1-(6-(azetidin-3-yloxy)-4-(6-(difluoromethyl)imidazo[1,2-b]pyridazin-3-yl)pyridin-2-yl)piperidin-3-yl)methyl)methanesulfonamide] |  | > 500 |  |  | 

— patent US10988477B2 (Merck Patent GmbH, priority 2018, dated 2021)
